This is an account of results in PMC8901119 (Chemical Science, 2021).

A word on the half-life: it is the time needed for the level to fall by half in the phase considered. The Ki is the equilibrium dissociation constant of an inhibitor or competing ligand from its target. A lower Ki goes with tighter binding.

The nature of data set [1]: Stability of peptides in HepG2 whole cell lysate. Particulars: human. The format is in vitro ADME. The protocol:
Stability of Peptides in HepG2 Whole Cell Lysate
Using the same conditions as the previous Cts L Activity Assay in HepG2 Whole Cell Lysate, 50 μL peptide (either R1A or RS1A; final concentration 20 μM) was incubated in 50 μL HepG2 whole cell lysate (to a final concentration of 0.05 mg/mL) in the assay buffer for different time points.
The all-amide peptide, R 1A, was incubated for t = 0, 5, 10, 15, 20, and 30 minutes. The thioamide peptide, RS1A, was incubated for t = 0, 2, 6, 8, 10, and 24 hours. After incubation for the desired amount of time, 100 μL methanol was added to the mixture and incubated at -20 °C for 10 minutes before spinning down at 13,000 rpm for 10 minutes. Then, 180 μL of each mixture was further diluted with 220 μL Milli-Q water to a total volume of 400 μL before adding 1 μL 0.42 mM coumarin internal standard for HPLC analysis. The coumarin internal standard was used to normalize the amount of intact peptide in each sample. A Phenomenex Luna® Omega 5 µm PS C18 100 Å analytical column was used to analyze all samples using the same gradient of 20-40 % B over 20 minutes (Solvent A: 0.1% TFA in Milli-Q water; Solvent B: 0.1% TFA in acetonitrile).
Representative HPLC spectra (325 nm) at different time points were also shown to confirm the stability of the peptides in HepG2 whole cell lysate (Figure S26 A & B). MALDI MS was used to confirm the mass from each fraction from the HPLC from experiment with the all-amide peptide (R 1A – expected [M+H]+ = 1133.51 m/z) and the thioamide peptide ( RS1A – expected [M+H]+ = 1149.48 m/z). To calculate the percent intact peptide for each sample, the average ratio of intact peptide to internal standard was compared to that ratio at t = 0. For each time point, the experiment

The next data set concerns the target Cts L (Homo sapiens, UniProt P07711). The data set is described as follows: Cathepsin L inhibition assay with Z-FR-AMC.
Setting [2] is: Cts L, mixed inhibition model fit, Z-FR-AMC, pH 5.5, 27 °C.

Structures are written as SMILES. Starred links: 1 amine or outer side, 2 acyl side, 3 side chain; linkers in the order of their positions; H or OH if unused. Non-standard residues stand in square brackets, D forms with d. Residues, ends and D or L forms follow the SMILES beside them. Ala(7-MeO-coumarin-4-yl) = COc1ccc2c(C[C@H](N)C(=O)O)cc(=O)oc2c1; X1 = C[C@H](NC(=S)[C@H](CCCNC(=N)N)N[*:1])C(=O)[*:2]; X2 = C[C@H](NC(=S)[C@H](CCCCN)N[*:1])C(=O)[*:2]

Cts L, sequence (P07711 114-333): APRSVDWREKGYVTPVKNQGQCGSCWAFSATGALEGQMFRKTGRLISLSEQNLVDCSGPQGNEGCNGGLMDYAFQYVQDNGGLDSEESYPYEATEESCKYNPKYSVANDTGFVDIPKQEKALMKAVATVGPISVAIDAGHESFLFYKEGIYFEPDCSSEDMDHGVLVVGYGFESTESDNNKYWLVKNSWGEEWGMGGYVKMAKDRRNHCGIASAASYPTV
Protocol for Cts L: The peptide inhibitors were pre-incubated with the appropriate proteases in the assay buffer for 10 min to ensure full interactions prior being added to the fluorogenic substrates. The fluorescence of the reaction was monitored as a function of time at 460 nm with an excitation wavelength of 380 nm by a Tecan M1000 plate reader. Each assay was done in triplicates to ensure reproducibility.
Cathepsin L Inhibition Assay. For cathepsin L (Cts L, ≥ 0.5 units/mg protein, solution; from human liver), various concentrations of the substrate Z-FR-AMC (1 μM, 2 μM, 3 μM, 5 μM, 7
μM, 10 μM, 15 μM, and 20 μM) were reacted with 37.9 nM Cts L in a 96-well plate at 27 °C.
Assay buffer consisted of100 mM sodium acetate, 100 mM NaCl, 1 mM EDTA, and 5 mM DTT
with this KSP1 peptide were conducted in 12.3 mM Na2HPO4, 87.7 mM NaH2PO4, 100 mM NaCl,
5 mM DTT, 1 mM EDTA, pH 6.0 at 27 °C – the buffer condition used for this peptide construct
3 A stock solution of 220 μg/mL enzyme in 20 mM malonate, 1 mM EDTA, 400
mM NaCl, pH 5.5 was diluted with the assay buffer. Peptide (inhibitor) stock solutions were
prepared in a minimal amount of Milli-Q water then diluted to the desired concentrations with the
assay buffer. A 5 mM stock solution of the fluorogenic substrate Z-FR-AMC (Bachem; Torrance, CA, USA) was initially prepared in DMSO and diluted with assay buffer. The diluted solution of
Cts L was incubated in the assay buffer with or without the peptide inhibitor at room temperature
for 10 min. For each 50 μL reaction, 25 μL of this Cts L solution (either with or without the peptide inhibitor) was added to 25 μL diluted Z-FR-AMC substrate to initiate the reaction. The fluorescence of the reaction was monitored as a function of time at 460 nm with an excitation wavelength of 380 nm on the Tecan M1000 plate reader. Three independent trials were performed
for each assay to ensure reproducibility. For analysis, the fluorescence data was converted to rates
of proteolysis in terms of concentration (μM/min) by a conversion factor calculated from a linear
fit of the endpoint fluorescence at complete hydrolysis versus substrate concentration. The initial reaction rate was then calculated by extracting the slope of a linear fit of the first 2 min of the
progress curve (Figures S13-S19). These curves were fit to a Michaelis-Menten enzyme kinetic
Kinetics Analysis of the Peptide Inhibitors of Cathepsin L, V, K, B, and S
For Cts L, from initial evaluation of the kinetic parameters obtained from fitting to Michaelis-
data from Z-FR-AMC inhibition assays with Cts L was thus further fitted to a general Mixed
Inhibition Model in GraphPad Prism version 8.4.3 (GraphPad Software; La Jolla, CA), using
A mixed Inhibition Mechanism for Reversible Inhibitors. Abbreviations: E: enzymes;
S: substrate; I: inhibitor; P: product; EI: enzyme-inhibitor complex; ESI: enzyme-substrate-
inhibitor complex; KI: dissociation constant for the EI complex; αK I (also known as KI'):
dissociation constant for the ESI complex.
This general mixed-inhibition model uses a global fitting in which Vmax, KM, KI, constant α and are
shared. The constant α here determines the degree to which inhibitor binding changes the affinity
of the enzyme for substrate; the value of α is always greater than zero.5, 6 An α = 1 (K I = αKI)
complex (ES); the model then becomes identical to a noncompetitive inhibition model.5, 6 When α
> 1, the inhibitor binds preferentially to the free enzyme (E); if α = ∞, the inhibitor binds almost
exclusively the free enzyme and this model becomes identical to competitive inhibition.5, 6 If 0 <α

Regarding `COc1ccc2c(C[C@H](NC(=O)[C@H](C)NC(=O)[C@H](CCCNC(=N)N)NC(=O)[C@H](Cc3ccccc3)NC(=O)[C@H](CC(C)C)NC(=O)[C@H](Cc3c[nH]cn3)NC(=O)[C@@H](N)Cc3cc(=O)oc4cc(OC)ccc34)C(=O)O)cc(=O)oc2c1` [R1A, μHLFRAμ] (H-[Ala(7-MeO-coumarin-4-yl)]HLFRA[Ala(7-MeO-coumarin-4-yl)]-OH), the half-life at 20 μM in data set [1] (20 μM peptide, 0.05 mg/mL lysate, HPLC) came to 7.2 min. Further, in data set [1] (HepG2 lysate, 5 mins, read-out: % intact peptide), the remaining at 5 min, 20 μM amounted to 46%. Also, the remaining at 10 min, 20 μM in data set [1] (HepG2 lysate, 10 mins, read-out: % intact peptide) worked out at 36%. In data set [1] (HepG2 lysate, 15 mins, read-out: % intact peptide), the remaining at 0.25 h, 20 μM is 32.8%. Besides, the remaining at 20 min, 20 μM in data set [1] (HepG2 lysate, 20 mins, read-out: % intact peptide) is 21.7%. Also, in data set [1] (HepG2 lysate, 30 mins, read-out: % intact peptide), the remaining at 0.5 h, 20 μM stood at 6.92%.
Turning to `COc1ccc2c(C[C@H](NC(=O)[C@H](C)NC(=O)[C@H](C)NC(=O)[C@H](C)NC(=S)[C@H](CCCNC(=N)N)NC(=O)[C@H](Cc3ccccc3)NC(=O)[C@H](CC(C)C)NC(=O)[C@H](Cc3c[nH]cn3)NC(=O)[C@@H](N)Cc3cc(=O)oc4cc(OC)ccc34)C(=O)O)cc(=O)oc2c1` [R^S3A, μHLFR^SAAAμ] (H-[Ala(7-MeO-coumarin-4-yl)]HLF[X1]AA[Ala(7-MeO-coumarin-4-yl)]-OH), at Cts L (setting [2]), the affinity corresponds to a Ki of 520 ± 120 nM.
The compound `COc1ccc2c(C[C@H](NC(=O)[C@H](C)NC(=O)[C@H](C)NC(=O)[C@H](C)NC(=O)[C@H](CCCCN)NC(=O)[C@H](Cc3ccccc3)NC(=O)[C@H](CC(C)C)NC(=O)[C@H](Cc3c[nH]cn3)NC(=O)[C@@H](N)Cc3cc(=O)oc4cc(OC)ccc34)C(=O)O)cc(=O)oc2c1` [K3A, μHLFKAAAμ] (H-[Ala(7-MeO-coumarin-4-yl)]HLFKAAA[Ala(7-MeO-coumarin-4-yl)]-OH) returned a Ki at Cts L (setting [2]) of 3050 ± 640 nM.
Still for that read-out and setting: for `COc1ccc2c(C[C@H](NC(=O)[C@H](C)NC(=O)[C@H](C)NC(=O)[C@H](C)NC(=S)[C@H](CCCCN)NC(=O)[C@H](Cc3ccccc3)NC(=O)[C@H](CC(C)C)NC(=O)[C@H](Cc3c[nH]cn3)NC(=O)[C@@H](N)Cc3cc(=O)oc4cc(OC)ccc34)C(=O)O)cc(=O)oc2c1` [K^S3A, μHLFK^SAAAμ] (H-[Ala(7-MeO-coumarin-4-yl)]HLF[X2]AA[Ala(7-MeO-coumarin-4-yl)]-OH) the value was 600 ± 150 nM; for `COc1ccc2c(C[C@H](NC(=O)[C@H](C)NC(=O)[C@H](C)NC(=O)[C@H](C)NC(=O)[C@H](CCCNC(=N)N)NC(=O)[C@H](Cc3ccccc3)NC(=O)[C@H](CC(C)C)NC(=O)[C@H](Cc3c[nH]cn3)NC(=O)[C@@H](N)Cc3cc(=O)oc4cc(OC)ccc34)C(=O)O)cc(=O)oc2c1` [R3A, μHLFRAAAμ] (H-[Ala(7-MeO-coumarin-4-yl)]HLFRAAA[Ala(7-MeO-coumarin-4-yl)]-OH), 1680 ± 490 nM.
Turning to `COc1ccc2c(C[C@H](NC(=O)[C@H](C)NC(=S)[C@H](CCCNC(=N)N)NC(=O)[C@H](Cc3ccccc3)NC(=O)[C@H](CC(C)C)NC(=O)[C@H](Cc3c[nH]cn3)NC(=O)[C@@H](N)Cc3cc(=O)oc4cc(OC)ccc34)C(=O)O)cc(=O)oc2c1` [R^S1A, μHLFR^SAμ] (H-[Ala(7-MeO-coumarin-4-yl)]HLF[X1][Ala(7-MeO-coumarin-4-yl)]-OH), in data set [1] (HepG2 lysate, 2 hours, read-out: % intact peptide), the remaining at 2 h, 20 μM was 86.3%. Moreover, the remaining at 6 h, 20 μM in data set [1] (HepG2 lysate, 6 hours, read-out: % intact peptide) turned out to be 75.7%. Besides, in data set [1] (HepG2 lysate, 8 hours, read-out: % intact peptide), the remaining at 8 h, 20 μM was determined as 80.7%. Also, the remaining at 10 h, 20 μM in data set [1] (HepG2 lysate, 10 hours, read-out: % intact peptide) is 79.9%. Also, in data set [1] (HepG2 lysate, 24 hours, read-out: % intact peptide), the remaining at 24 h, 20 μM was determined as 61.3%.
`COc1ccc2c(C[C@H](NC(=O)[C@H](C)NC(=O)[C@H](C)NC(=O)[C@H](C)NC(=S)[C@H](CCCCN)NC(=O)[C@H](CC(C)C)NC(=O)[C@H](CC(C)C)NC(=O)[C@@H](N)Cc3cc(=O)oc4cc(OC)ccc34)C(=O)O)cc(=O)oc2c1` [K^SP1, μLLK^SAAAμ] (H-[Ala(7-MeO-coumarin-4-yl)]LL[X2]AA[Ala(7-MeO-coumarin-4-yl)]-OH; N-terminus and C-terminus assumed) displayed an inhibition constant Ki on Cts L (Cts L (preliminary data), phosphate buffer pH 6.0, 27 °C, preliminary) of 870 nM.
